Format in all cases: cell-based
The test system of data set [1] is human Factor 7 mRNA. As to the kind of experiment: Dose-dependent antisense inhibition of human Factor 7 in HepB3 cells, electroporation. How it is done: (§1) The gapmers were also transfected via electroporation and their dose-dependent inhibition of human Factor 7 mRNA was measured. Cells were plated at a density of 20,000 cells per well and transfected via electroporation with 3.125 μM, 6.25 μM, 12.5 μM, 25 μM, 50 μM, and 100 μM concentrations of antisense oligonucleotide, as specified in Table 15. After a treatment period of approximately 16 hours, RNA was isolated from the cells and Factor 7 mRNA levels were measured by quantitative real-time PCR. Human Factor 7 primer probe set RTS 2927 was used to measure mRNA levels. Factor 7 mRNA levels were adjusted according to total RNA content, as measured by RIBOGREEN®. Results are presented as percent inhibition of Factor 7, relative to untreated control cells.
as §1, with “Cells were” for “The gapmers were also transfected via electroporation and their dose-dependent inhibition of human Factor 7 mRNA was measured. Cells were”, “in […]. After a” for “in Table 15. After a”, “cells and human Factor 7” for “cells and Factor 7”

Data set [2] has as its system human Factor 7 mRNA. As to the kind of experiment: Dose-dependent antisense inhibition of human Factor 7 in HepB3 cells, lipofectin. The settings on record: HepB3 cells, approx. 16 hours (Table 14). The procedure, abridged:
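HepB3 cells (4,000/well) lipofectin-transfected with antisense oligonucleotide at 3.125 or 6.25 up to 100 nM for ~16 h. Factor 7 mRNA measured by real-time RT-PCR with primer probe set RTS 2927, adjusted to RIBOGREEN total RNA; expressed as percent inhibition versus untreated control cells.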

The test system of data set [3] is human Factor 7 mRNA. As to the kind of experiment: Antisense inhibition of human Factor 7 mRNA in HepB3 cells, 50 nM antisense oligonucleotide, lipofectin. The settings on record: for % Inhibition (human Factor 7 mRNA levels): oligonucleotides targeted to nucleobases 13760 to 13789 of SEQ ID NO: 1 (Table 10); for % Inhibition of human Factor 7 mRNA levels: gapmers targeted to nucleobases 4868 to 4899 of SEQ ID NO: 1, Table 8; for % Inhibition: Table 13 (microwalk), 50 nM, lipofectin, approximately 24 hours. The procedure, abridged: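 Percent inhibition of Factor 7 mRNA, relative to untreated control, comes from real-time RT-PCR with RIBOGREEN normalization, using primer probe set RTS 2927 in some runs. RNA was taken roughly 24 h after lipofectin delivery of 50 nM oligonucleotide into HepB3 cells.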

[4] abbreviates: 3.125 μM, approx. 16 hours (Table 15, Example 7).
The mark [5] stands for this setting: 3.125 μM, approx. 16 hours (Table 16, Example 8 confirmation).
[6] abbreviates: 6.25 μM, approx. 16 hours (Table 15, Example 7).
The mark [7] stands for this setting: 6.25 μM, approx. 16 hours (Table 16, Example 8 confirmation).
Where [8] appears, read: 12.5 μM, approx. 16 hours (Table 15, Example 7).
Where [9] appears, read: 12.5 μM, approx. 16 hours (Table 16, Example 8 confirmation).
Where [10] appears, read: 25 μM, approx. 16 hours (Table 15, Example 7).
Setting [11] is: 25 μM, approx. 16 hours (Table 16, Example 8 confirmation).
The mark [12] stands for this setting: 50 μM, approx. 16 hours (Table 15, Example 7).
Setting [13] is: 50 μM, approx. 16 hours (Table 16, Example 8 confirmation).
Setting [14] is: 100 μM, approx. 16 hours (Table 15, Example 7).
The mark [15] stands for this setting: 100 μM, approx. 16 hours (Table 16, Example 8 confirmation).

Strand notation (5' to 3'): a small letter for the sugar, then the base; units joined by * are phosphorothioate-linked, units joined directly phosphodiester-linked; [ ] holds rarer units or linkages, { } end groups; capitals alone tell only the bases. e = 2'-O-(2-methoxyethyl) (MOE); [5mC] = 5-methylcytosine; d = 2'-deoxy (DNA)

One may read the % Inhibition as the drop in the measured response relative to a control, in per cent.

“422183 (antisense eG*e[5mC]*eG*d[5mC]*d[5mC]*dA*d[5mC]*d[5mC]*d[5mC]*dG*d[5mC]*d[5mC]*dG*dG*d[5mC]*dT*d[5mC]*eT*eG*e[5mC]) [compound 422183]”: the “percent inhibition of Factor 7 mRNA, relative to untreated control cells” value in data set [1] (setting [4]) is 16%; in data set [1] (setting [5]), 2%; in data set [1] (setting [6]) it was 28%; in data set [1] (setting [7]) it was 3%; in data set [1] (setting [8]), 37%; in data set [1] (setting [9]), 24%. Besides, the “percent inhibition of Factor 7 mRNA, relative to untreated control cells” value in data set [1] (setting [10]) is given as 44%; in data set [1] (setting [11]), 50%; in data set [1] (setting [12]), 59%; in data set [1] (setting [13]), 64%; in data set [1] (setting [14]), 71%; in data set [1] (setting [15]), 71%. Further, the “percent inhibition of Factor 7 mRNA, relative to untreated control cells” value amounted to 28% in data set [2] (3.125 nM); 56% in data set [2] (12.5 nM); 78% in data set [2] (25 nM); 84% in data set [2] (50 nM); 88% in data set [2] (100 nM); 37% in data set [2]. Besides, the “% Inhibition (human Factor 7 mRNA levels)” value in data set [3] came out at 79%.

As to “422215 (antisense eG*eT*eT*d[5mC]*dT*dG*d[5mC]*dA*dG*dG*dA*dG*d[5mC]*dG*dG*d[5mC]*d[5mC]*eT*eA*eA) [compound 422215]”, the “percent inhibition of Factor 7 mRNA, relative to untreated control cells” value in data set [1] (setting [4]) came to 11%; in data set [1] (setting [6]), 9%; in data set [1] (setting [8]) it was 31%; in data set [1] (setting [10]), 50%; in data set [1] (setting [12]), 68%; in data set [1] (setting [14]), 84%. Also, the “percent inhibition of Factor 7 mRNA, relative to untreated control cells” value in data set [2] (3.125 nM) is reported as 13%; in data set [2] (12.5 nM), 54%; in data set [2] (25 nM) it was 65%; in data set [2] (50 nM), 84%; in data set [2] (100 nM) it was 82%; in data set [2], 30%. Besides, in data set [3], the “% Inhibition of human Factor 7 mRNA levels” value worked out at 73%.

For “422217 (antisense eG*eA*eG*dT*dT*d[5mC]*dT*dG*d[5mC]*dA*dG*dG*dA*dG*d[5mC]*dG*dG*e[5mC]*e[5mC]*eT) [compound 422217]”, the “percent inhibition of Factor 7 mRNA, relative to untreated control cells” value came out at 15% in data set [1] (setting [4]); 19% in data set [1] (setting [6]); 29% in data set [1] (setting [8]); 55% in data set [1] (setting [10]); 61% in data set [1] (setting [12]); 83% in data set [1] (setting [14]). Further, the “percent inhibition of Factor 7 mRNA, relative to untreated control cells” value is reported as 8% in data set [2] (3.125 nM); 45% in data set [2] (12.5 nM); 63% in data set [2] (25 nM); 79% in data set [2] (50 nM); 83% in data set [2] (100 nM); 18% in data set [2]. The “% Inhibition of human Factor 7 mRNA levels” value in data set [3] stood at 75%.

Regarding “422228 (antisense eT*eG*d[5mC]*dA*dT*dG*dG*dT*dG*dA*dT*dG*d[5mC]*dT*dT*e[5mC]*eT*eG*eA*eA) [compound 422228]”, the “percent inhibition of Factor 7 mRNA, relative to untreated control cells” value in data set [1] (setting [4]) was 18%; in data set [1] (setting [6]) it was 33%; in data set [1] (setting [8]), 40%; in data set [1] (setting [10]) it was 47%; in data set [1] (setting [12]), 71%; in data set [1] (setting [14]) it was 83%. Besides, the “percent inhibition of Factor 7 mRNA, relative to untreated control cells” value was 17% in data set [2] (3.125 nM); 43% in data set [2] (12.5 nM); 60% in data set [2] (25 nM); 78% in data set [2] (50 nM); 90% in data set [2] (100 nM); 25% in data set [2]. In addition, the “% Inhibition” value in data set [3] is 73%.

For “422229 (antisense eA*eT*dG*d[5mC]*dA*dT*dG*dG*dT*dG*dA*dT*dG*d[5mC]*dT*eT*e[5mC]*eT*eG*eA) [compound 422229]”, the “percent inhibition of Factor 7 mRNA, relative to untreated control cells” value in data set [1] (setting [4]) was determined as 21%; in data set [1] (setting [5]) it was 30%; in data set [1] (setting [6]), 30%; in data set [1] (setting [7]) it was 45%; in data set [1] (setting [8]), 33%; in data set [1] (setting [9]), 67%. In addition, the “percent inhibition of Factor 7 mRNA, relative to untreated control cells” value in data set [1] (setting [10]) is listed as 44%; in data set [1] (setting [11]), 79%; in data set [1] (setting [12]), 65%; in data set [1] (setting [13]), 90%; in data set [1] (setting [14]) it was 77%; in data set [1] (setting [15]) it was 92%. For the same substance, the “percent inhibition of Factor 7 mRNA, relative to untreated control cells” value in data set [2] (3.125 nM) amounted to 21%; in data set [2] (12.5 nM) it was 53%; in data set [2] (25 nM) it was 72%; in data set [2] (50 nM) it was 86%; in data set [2] (100 nM), 92%; in data set [2], 32%. Moreover, the “% Inhibition” value in data set [3] turned out to be 71%.

Take “422252 (antisense e[5mC]*eG*d[5mC]*d[5mC]*dG*dG*d[5mC]*dT*d[5mC]*dT*dG*d[5mC]*dT*d[5mC]*dA*eT*e[5mC]*e[5mC]*e[5mC]*e[5mC]) [compound 422252]”: the “percent inhibition of Factor 7 mRNA, relative to untreated control cells” value was 23% in data set [1] (setting [4]); 12% in data set [1] (setting [6]); 26% in data set [1] (setting [8]); 38% in data set [1] (setting [10]); 58% in data set [1] (setting [12]); 80% in data set [1] (setting [14]). The “percent inhibition of Factor 7 mRNA, relative to untreated control cells” value in data set [2] (3.125 nM) was 18%; in data set [2] (12.5 nM), 45%; in data set [2] (25 nM), 61%; in data set [2] (50 nM), 77%; in data set [2] (100 nM), 87%; in data set [2], 17%. Besides, the “% Inhibition (human Factor 7 mRNA levels)” value in data set [3] turned out to be 70%.

Source of the values: US9029337B2, “Modulation of factor 7 expression” (Isis Pharmaceuticals, Inc., priority 2007, dated 2015).
